# Measurements taken from patent US9925222B2, “Gut barrier dysfunction treatment and prevention” (ALBERT EINSTEIN COLLEGE OF MEDICINE OF YESHIVA UNIVERSITY, priority 2012, dated 2018).
# Key:
# [1] = system: Tnf-α, Zo-1 and E-cad mRNA expression in gut epithelium; test: Ex vivo treatment of gut mucosa with OLA, rescue with indole and IPA, qPCR; assay type: cell-based; details: OLA 5 mg/ml, 3 h ex vivo; all mice genotypes
# Method: Freshly isolated gut mucosa were incubated in the presence of OLA (5 mg/ml) for 3 h at 37° C., 5% CO2 (13). After 3 h of OLA treatment, enterocytes were isolated and pooled for RNA isolation. […] Experiments were performed at least two independent times. OLA has […] (log P), thus is unsuitable for in vivo studies of luminal bacterial enzyme inhibition (Pubchem, ST093573). 2.0 μg of total RNA extracted from pooled apical enterocytes with TRIzolR (Invitrogen), were reverse transcribed with random hexamer primers and SuperScriptTM III-RT enzyme (Invitrogen). Quantitative PCR (qPCR) reactions using TaqMan universal PCR master mix and TaqMan probes containing FAM as the 5' reporter fluorochrome and tetramethylrhodamine (MGB) as the 3' quencher fluorochrome, were performed in triplicate for each sample and analyzed on the ABI Prism 7900HT system. Primers and minor groove binder/non-fluorescent quencher probes used for PCR amplification were obtained from Applied Biosystems as well as the following assays on demand: […] Controls include RT-minus RNA samples. PCR reaction conditions for all assays were set at 50° C. for 2 minutes, 95° C. for 10 minutes, followed by 40 cycles of amplification (95° C. for 15 seconds then 60° C. for 1 minute).
# [2] = Pubchem, ST093573; cited from earlier work
smiles,measurement,setting,value
"NC(CC1C(=O)Nc2ccccc21)C(=O)O [OLA, Oxindolyl L-alanine]",Enterocyte Tnf-α mRNA expression after OLA,[1],enhanced enterocyte Tnf-α mRNA expression
same,Expression of junctional regulators (Zo-1 and E-cad) after OLA,[1],diminished expression of junctional regulators
same,Predicted oral bioavailability (log P),[2],high
